# Values quoted from earlier work as cited in PMC6709472 (Antimicrobial Agents and Chemotherapy, 2019).
# Tests used:
# [1] = read-out: 50% effective concentration [EC50]; in vitro activity quoted for VL development
# [2] = system: visceral leishmaniasis (VL); settings: 12.5 mg/kg of body weight orally twice a day; hamster models of VL
smiles,measurement,setting,value
O=[N+]([O-])c1cn2c(n1)O[C@@H](COc1ccc(-c3ccc(F)cc3)nc1)CC2 [DNDI-0690],EC50,[1],170 nM
same,in vivo efficacy,[2],> 99%
